Measurements published in patent US8012487B2, “Synthetic peptides and DNA sequences for treatment of multiple sclerosis” (priority 2001, dated 2011).
Where no end group is shown, it is not given here.

What was measured:
[1] = tested on: EAE induced by Y-MSPb-reactive line T-cells; test: EAE associated with multiple pathogenic autoreactivities induced by transfer of Y-MSPb-reactive line T-cells; assay type: in vivo, (C3H.SW×SJL/J)F1 mice; conditions: in PBS given daily i.p. from the day of T-cell transfer; FIG. 9B
Procedure: Y-MSPb, the purified protein product of the synthetic Y-MSPb gene, disclosed in WO 01-31037, designed to encode tandemly arranged disease-relevant epitopes clusters of the encephalitogenic proteins MBP, PLP, MOG, and MOBP, was tested for its immunomodulatory effect on EAE associated with multiple pathogenic autoreactivities, upon tolerogenic administration, in the same way as described for Y-MSPa in WO 01-31037.
Line T-cells were selected in vitro with Y-MSPb from lymph node cells (LNCs) of (C3H.SW×SJL/J)F1 mice immunized with Y-MSPb (containing encephalitogenic epitopes of MOG, MBP, PLP and MOBP) in CFA, and were analyzed after primary response (left panel) and after four cycles of selection (right panel) for their proliferative response to Y-MSPb, phMOG 34-56, phMOG 1-22, shMOG/E, PLP 139-151, shPLP/E, MBP 87-101 and shMBP/E (10 μ/ml). The proliferative response to purified protein derivative (PPD) (5 μ/ml) was analyzed as a measure of specificity. The line T cells are directed against each of the myelin autoantigens.

[2] = tested on: TCR; test: TCR signaling in MOG 37-52-reactive T-cell clones; assay type: cell-based, mice; conditions: peptide alone; not shown
Procedure: Possible mechanisms by which the relevant APLs may inhibit MOG 37-52-reactive T-cell clones in vitro were tested by analyzing their effect on TCR signaling, as well as on cytokine secretion by the clones.

[3] = tested on: lymph node cells; test: Ex vivo response to MOG 37-52 by lymph node cells isolated from treated mice; assay type: cell-based; conditions: cells from APL-treated C3H.SW mice
[4] = tested on: APL-specific T-cell lines; test: Cytokine profile of APL-specific T-cell lines (ELISA); assay type: cell-based, mice; conditions: pilot studies, not shown
From the text: (§1) For EAE induced in H-2^b haplotype mice (C3H.SW, C57BL) by MOG 35-55 (SEQ ID NO: 234), we have defined residues 41 and 44 as crucial TCR contact residues for the interaction between the encephalitogenic nonameric core sequence MOG 40-48, found by molecular modelling studies to represent the preferred binding mode for MOG 35-55 to IA^b, and the TCR of H-2^b MOG-specific T-cells. APLs with non-conservative substitutions at either or both of these residues elicited T-cell responses which were not encephalitogenic (not shown). In vitro, these APLs inhibited the proliferation of T-cell clones to MOG 37-52, the minimal optimal stimulatory peptide. […] MOG35-55-specific T-cell line was raised from MOG35-55-immunized C3H.SW mice as described (Mendel et al., 1996). Cytokine assays were performed by ELISA according to PharMingen standard protocols.

[5] = tested on: EAE induced with MOG 37-52; test: EAE induced with MOG 37-52, treatment with MOG APLs; assay type: in vivo; conditions: C3H.SW mice; 400 μg in PBS i.v. on days 5, 7, 9 and 12 after encephalitogenic challenge; FIG. 8
[6] = tested on: H-2^b haplotype mice (C3H.SW, C57BL); test: Encephalitogenicity of T-cell responses elicited by APLs; assay type: in vivo; conditions: H-2^b mice; not shown
From the text: as §1

[7] = tested on: EAE induced with MBP, MOG or MBP/MOG combination; conditions: (PL/J×SJL/J) F1 mice, cited from earlier work
[8] = tested on: chronic EAE induced with whole PLP; conditions: SJL/J mice; tolerization; cited from earlier work

Q: Which “EAE induced by Y-MSPb-reactive line T-cells: disease incidence or severity” value [1] does the source give for “MOG 37-52: native MOG peptide, the minimal optimal stimulatory peptide (VGWYRPPFSRVVHLYR; Synthetic peptide containing sequence 37-52 of MOG.)” here?
A: no significant effect

Q: Which “TCR signaling in the T-cell clones” value [2] does the source give for “MOG 37-A44-52: APL of MOG 37-52 wherein F44 is substituted by A44 (VGWYRPPASRVVHLYR; The peptide of SEQ ID NO231 in which the residue at position 8 was replaced by Ala.)” here?
A: induces partial TCR signaling

Q: And the “response ex vivo to MOG 37-52 by lymph node cells isolated from treated mice” value [3]?
A: markedly reduced response

Q: What about the “cytokine profile of APL-specific T-cell lines” value [4] of the same substance?
A: elicits Th2 T-cells

Q: What about the “severity and incidence of EAE induced with the native MOG 37-52” value [5] of the same substance?
A: marked decrease

Q: And the “encephalitogenicity of the APL / of the T-cell responses it elicits” value [6]?
A: non-encephalitogenicity

Q: Which results are given for “MBPAc1-11: immunodominant encephalitogenic epitope within MBP (Ac-MGNHSGKRELS; UniProt P04370 1-11, looked up, fragment)”?
A: MBP-induced EAE [7]: suppresses; MOG-induced EAE [7]: no effect; clinical severity of EAE induced with a combination of MBP and MOG ([7]; tolerogenic administration): marginal therapeutic effect

Q: Which “chronic EAE induced with whole PLP: acute phase and relapses” value [8] does the source give for “PLP139-151: major encephalitogenic peptide of PLP (CHCLGKWLGHPDK; UniProt P60202 139-151, looked up, fragment)” here?
A: abrogated the primary acute phase, but not subsequent relapses

Q: What about the “EAE induced by Y-MSPb-reactive line T-cells: disease incidence or severity” value [1] of the same substance?
A: no significant effect

Q: What does the source list for “MOG 37-Q41-52: MOG 37-52 altered peptide ligand substituted at TCR contact residue 41 (VGWYQPPFSRVVHLYR; The peptide of SEQ ID NO231 in which the residue at position 5 was replaced by Gln.)”?
A: response ex vivo to MOG 37-52 by lymph node cells isolated from treated mice [3]: markedly reduced response; severity and incidence of EAE induced with the native MOG 37-52 [5]: marked decrease
